Each block holds one molecule with its values, some of them ahead of it.
Experiments:
maximaler Elektroschock = experiment: maximal electroshock (MES) test, mouse i.p.; type: in vivo; conditions: Maus i.p.
[1] = octanol/water partition coefficient; type: physicochemical; conditions: Octanol/Wasser, read-out: log P (Verteilungskoeffizient Octanol/Wasser)
s.c. Pentetrazol = experiment: s.c. pentetrazole (PTZ) test, mouse i.p.; type: in vivo; conditions: Maus i.p.
s.c. Pentetrazol-Test = experiment: s.c. pentetrazole test, rat
Neurotoxizität = conditions: Ratte, p.o.
maximalen Elektroschock = experiment: maximal electroshock test, rat p.o.; conditions: po, read-out: ED50 (p.o.)

SMILES: O=C1N=C(N2CCOCC2)CN1Cc1ccccc1 [Verbindung 4]
Wirkung in % der geschützten Tiere (maximaler Elektroschock; Dosis 300 mg/kg): 30%
logP [1]: 0.48
Wirkung in % der geschützten Tiere (s.c. Pentetrazol; Dosis 300 mg/kg): 30%

SMILES: O=C1N=C(N2CCOCC2)CN1c1ccc(Cl)cc1 [Verbindung 2, 1-(4-Chlorphenyl)-4-morpholinoimidazolin-2-on]
ED50 (s.c. Pentetrazol-Test): 16 mg/kg
NT50 (Neurotoxizität): > 400 mg/kg
Wirkung in % der geschützten Tiere (maximaler Elektroschock; Dosis 300 mg/kg): 30%
logP [1]: 1.48
Wirkung in % der geschützten Tiere (s.c. Pentetrazol; Dosis 30 mg/kg): 70%
ED50 (maximalen Elektroschock): 21 mg/kg

SMILES: COc1ccc(N2CC(N3CCCCC3)=NC2=O)cc1 [Verbindung 7]
Wirkung in % der geschützten Tiere (maximaler Elektroschock; Dosis 300 mg/kg): 100%
logP [1]: 1.53
Wirkung in % der geschützten Tiere (s.c. Pentetrazol; Dosis 100 mg/kg): 100%

SMILES: CCCC(CCC)C(=O)O [Valproat, reference compound]
Wirkung in % der geschützten Tiere (maximaler Elektroschock; Dosis 100 mg/kg): 0%
Wirkung in % der geschützten Tiere (s.c. Pentetrazol; Dosis 100 mg/kg): 30%

SMILES: CN(C)C1=NC(=O)N(c2ccc(Cl)cc2)C1 [Verbindung 6]
Wirkung in % der geschützten Tiere (maximaler Elektroschock; Dosis 300 mg/kg): 100%
logP [1]: 1.61
Wirkung in % der geschützten Tiere (s.c. Pentetrazol; Dosis 100 mg/kg): 20%

SMILES: O=C1N=C(N2CCCCCC2)CN1c1ccc(Cl)cc1 [Verbindung 11]
Wirkung in % der geschützten Tiere (maximaler Elektroschock; Dosis 300 mg/kg): 100%
logP [1]: 2.56
Wirkung in % der geschützten Tiere (s.c. Pentetrazol; Dosis 300 mg/kg): 40%

SMILES: NC(=O)N1c2ccccc2C=Cc2ccccc21 [Carbamazepin, reference compound]
Wirkung in % der geschützten Tiere (maximaler Elektroschock; Dosis 100 mg/kg): 100%
Wirkung in % der geschützten Tiere (s.c. Pentetrazol; Dosis 100 mg/kg): 0%

The next lines start with results.

logP [1]: 2.17
SMILES: CN1CCN(C2=NC(=O)N(c3ccc(Cl)cc3)C2)CC1 [Verbindung 5]
Wirkung in % der geschützten Tiere (maximaler Elektroschock; Dosis 300 mg/kg): 100%
Wirkung in % der geschützten Tiere (s.c. Pentetrazol; Dosis 300 mg/kg): 100%

logP [1]: 0.97
SMILES: O=C1N=C(N2CCOCC2)CN1c1ccc(F)cc1 [Verbindung 9]
Wirkung in % der geschützten Tiere (maximaler Elektroschock; Dosis 100 mg/kg): 30%
Wirkung in % der geschützten Tiere (s.c. Pentetrazol; Dosis 100 mg/kg): 100%

logP [1]: 1.28
SMILES: O=C1N=C(N2CCOCC2)CN1c1cccc(Cl)c1 [Verbindung 10]
Wirkung in % der geschützten Tiere (maximaler Elektroschock; Dosis 300 mg/kg): 10%
Wirkung in % der geschützten Tiere (s.c. Pentetrazol; Dosis 300 mg/kg): 70%

logP [1]: 2.29
SMILES: O=C1N=C(N2CCCCC2)CN1c1ccc(Cl)cc1 [Verbindung 3]
Wirkung in % der geschützten Tiere (maximaler Elektroschock; Dosis 100 mg/kg): 100%
Wirkung in % der geschützten Tiere (s.c. Pentetrazol; Dosis 100 mg/kg): 100%

logP [1]: 1.45
SMILES: O=C1N=C(N2CCOCC2)CN1c1ccc(Br)cc1 [Verbindung 8]
Wirkung in % der geschützten Tiere (maximaler Elektroschock; Dosis 300 mg/kg): 30%
Wirkung in % der geschützten Tiere (s.c. Pentetrazol; Dosis 100 mg/kg): 100%

logP [1]: 0.64
SMILES: O=C1N=C(N2CCOCC2)CN1c1ccccc1 [Verbindung 1]
Wirkung in % der geschützten Tiere (maximaler Elektroschock; Dosis 100 mg/kg): 30%
Wirkung in % der geschützten Tiere (s.c. Pentetrazol; Dosis 100 mg/kg): 30%

From EP0863880B1, “NOVEL 1-AR(ALK)YL-IMIDAZOLIN-2-ONES CONTAINING A DISUBSTITUTED AMINE RADICAL IN THE 4TH POSITION, HAVING AN ANTI-CONVULSIVE EFFECT, AND PROCESS FOR THEIR PRODUCTION” (elbion AG, priority 1995, dated 1997)
